Reference: US11415579B2, “Assay for measuring a rate of reaction between a target and a ligand candidate” (Imperial College Innovations Ltd., priority 2016, dated 2022)

Key:
Cdk2[C177A, F80C, K278C] = biological target: T1, Cdk2[C177A, F80C, K278C] (Homo sapiens, UniProt P24941, C177A/F80C/K278C); assay: Kinetic thiol consumption assay with mutant Cdk2 as model thiol; format: binding; design: unit not given here; conditions: 500 μM ligand, 5 μM thiol, phosphate buffer pH 8
T1 construct: poly-histidine; made in house; host or cells: E. coli
Procedure, shortened: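 Model thiol: His-tagged human Cdk2 C177A/F80C/K278C (two engineered surface cysteines), E. coli-expressed, 5 μM in degassed phosphate buffer pH 8 with immobilized TCEP beads (2% v/v). Fluorescence (ex/em 380/470 nm) followed over time at room temperature, normalized to DMSO/thiol control. First-order decay fit gives rate constants.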

Cdk2(S276C) (C177A) = biological target: T2, Cdk2(S276C) (C177A) (Homo sapiens, UniProt P24941, C177A/S276C); assay: Kinetic thiol consumption assay with Cdk2 mutant S276C; format: binding; design: key to Rate enhancement, Cdk2 S276C: rate constant with Cdk2 ÷ rate constant with model thiol (fold); conditions: additional mutation C177A; for Rate constant with Cdk2 S276C: Protein: Cdk2, cysteine position S276C, in h^-1
T2 construct: poly-histidine; made in house; host or cells: E. coli
Procedure, shortened: (§1)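 His-tagged single-surface-cysteine Cdk2 mutants (C177A background) from E. coli, 5 μM in degassed phosphate buffer pH 8, pre-treated with immobilized TCEP beads. Fluorescence (ex/em 380/470 nm) read after 1 h at room temperature, normalized to DMSO/thiol-only control; first-order decay fits gave rate constants, divided by model-thiol rate for rate enhancement.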

Cdk2(C177A, F80C) = biological target: T3, Cdk2(C177A, F80C) (Homo sapiens, UniProt P24941, C177A/F80C); assay: Kinetic thiol consumption assay with Cdk2 mutant F80C, incl. kobs versus concentration (Kd, k2); format: binding; design: key to Rate enhancement, Cdk2 F80C: Cdk2 rate constant divided by model-thiol rate constant; conditions: additional mutation C177A; for Rate constant with Cdk2 F80C: Protein: Cdk2, cysteine position F80C, in h^-1
T3 construct: poly-histidine; made in house; host or cells: E. coli
Procedure, shortened: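 His-tagged Cdk2(C177A/F80C) from E. coli or model thiol, 5 μM in degassed phosphate buffer pH 8 with TCEP beads, reacted with acrylamide ligands; fluorescence (ex/em 380/470 nm) normalized to DMSO control and fitted to first-order decay for kobs. Kd and k2 obtained from hyperbolic fit of kobs versus ligand concentration.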

Cdk2(S181C) (C177A) = biological target: T4, Cdk2(S181C) (C177A) (Homo sapiens, UniProt P24941, C177A/S181C); assay: Kinetic thiol consumption assay with Cdk2 mutant S181C; format: binding; design: key to Rate enhancement, Cdk2 S181C: rate constant with Cdk2 ÷ rate constant with model thiol (fold); conditions: additional mutation C177A; for Rate constant with Cdk2 S181C: Protein: Cdk2, cysteine position S181C, in h^-1
T4 construct: poly-histidine; made in house; host or cells: E. coli
Procedure, shortened: as §1

[1] = biological target: T5, human cyclin-dependent kinase 2 (Cdk2) (Homo sapiens, UniProt P24941); assay: Kinetic thiol consumption assay with wild type Cdk2 (C177); format: binding; design: key to Rate enhancement, Cdk2 WT: k(Cdk2) divided by k(model thiol); Rate constant with Cdk2 (k(Cdk2)): unit not given here; conditions: for Rate constant with Cdk2 (k(Cdk2)): 500 μM ligand, 5 μM thiol, phosphate buffer pH 8; for Rate enhancement, Cdk2 WT: no additional mutations; for Rate constant with Cdk2 WT: Protein: Cdk2, cysteine position WT, in h^-1; for k(Cdk2)/k(Cdk2_mut) rate enhancement: model thiol Cdk2[C177A, F80C, K278C]; for k(Cdk2)/k(GSH) rate enhancement: model thiol glutathione
T5 construct: poly-histidine; made in house; host or cells: E. coli
Procedure, shortened: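 Rate enhancement: first-order decay constant with Cdk2 over that with a model thiol. Thiols (5 μM, degassed phosphate buffer pH 8, immobilized TCEP) were incubated with acrylamides at room temperature, and thiol consumption followed by fluorescence at 380/470 nm, normalized to DMSO control. Cdk2 was His-tagged, E. coli-expressed, with one surface cysteine (C177).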

Cdk2(T182C) (C177A) = biological target: T6, Cdk2(T182C) (C177A) (Homo sapiens, UniProt P24941, C177A/T182C); assay: Kinetic thiol consumption assay with Cdk2 mutant T182C; format: binding; design: key to Rate enhancement, Cdk2 T182C: rate constant with Cdk2 ÷ rate constant with model thiol (fold); conditions: additional mutation C177A; for Rate constant with Cdk2 T182C: Protein: Cdk2, cysteine position T182C, in h^-1
T6 construct: poly-histidine; made in house; host or cells: E. coli
Procedure, shortened: as §1

[2] = Kinetic thiol consumption assay with model thiol glutathione; format: physicochemical; design: Rate constant with glutathione (k(GSH)): unit not given here; conditions: for Rate constant with glutathione (k(GSH)): 500 μM ligand, 5 μM thiol, phosphate buffer pH 8; for Rate constant with Glutathione: Protein: Glutathione, cysteine position NA, in h-1
Procedure, shortened: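 GSH 5 μM, degassed phosphate buffer pH 8, TCEP beads 2% v/v; acrylamide added; RT, 1 h; fluorescence ex/em 380/470 nm; normalized to DMSO/thiol control; k from first-order exponential decay fit.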

Cdk2(R122C) (C177A) = biological target: T7, Cdk2(R122C) (C177A) (Homo sapiens, UniProt P24941, C177A/R122C); assay: Kinetic thiol consumption assay with Cdk2 mutant R122C; format: binding; design: key to Rate enhancement, Cdk2 R122C: rate constant with Cdk2 ÷ rate constant with model thiol (fold); conditions: additional mutation C177A; for Rate constant with Cdk2 R122C: Protein: Cdk2, cysteine position R122C, in h-1
T7 construct: poly-histidine; made in house; host or cells: E. coli
Procedure, shortened: as §1

Cdk2(H71C) (C177A) = biological target: T8, Cdk2(H71C) (C177A) (Homo sapiens, UniProt P24941, C177A/H71C); assay: Kinetic thiol consumption assay with Cdk2 mutant H71C; format: binding; design: key to Rate enhancement, Cdk2 H71C: rate constant with Cdk2 ÷ rate constant with model thiol (fold); conditions: additional mutation C177A; for Rate constant with Cdk2 H71C: Protein: Cdk2, cysteine position H71C, in h^-1
T8 construct: poly-histidine; made in house; host or cells: E. coli
Procedure, shortened: as §1

Cdk2(N272C) (C177A) = biological target: T9, Cdk2(N272C) (C177A) (Homo sapiens, UniProt P24941, C177A/N272C); assay: Kinetic thiol consumption assay with Cdk2 mutant N272C; format: binding; design: key to Rate enhancement, Cdk2 N272: rate constant with Cdk2 ÷ rate constant with model thiol (fold); conditions: for Rate enhancement, Cdk2 N272: Cdk2 N272, additional mutation C177A; for Rate constant with Cdk2 N272C: Protein: Cdk2, cysteine position N272C, additional mutation C177A, in h^-1
T9 construct: poly-histidine; made in house; host or cells: E. coli
Procedure, shortened: as §1

Row | Structure (SMILES) | Rate constant with Cdk2[C177A, F80C, K278C] (k(Cdk2_mut)) (Cdk2[C177A, F80C, K278C]) | Rate enhancement, Cdk2 S276C (Cdk2(S276C) (C177A)) | Rate constant with Cdk2 S276C (Cdk2(S276C) (C177A)) | Rate enhancement, Cdk2 F80C (Cdk2(C177A, F80C)) | Rate constant with Cdk2 F80C (Cdk2(C177A, F80C)) | Rate enhancement, Cdk2 S181C (Cdk2(S181C) (C177A)) | Rate constant with Cdk2 S181C (Cdk2(S181C) (C177A)) | Rate constant with Cdk2 (k(Cdk2)) [1] | Rate enhancement, Cdk2 WT [1] | Rate constant with Cdk2 WT [1] | k(Cdk2)/k(Cdk2_mut) rate enhancement [1] | k(Cdk2)/k(GSH) rate enhancement [1] | Rate enhancement, Cdk2 T182C (Cdk2(T182C) (C177A)) | Rate constant with Cdk2 T182C (Cdk2(T182C) (C177A)) | Rate enhancement, Cdk2 R122C (Cdk2(R122C) (C177A)) | Rate enhancement, Cdk2 H71C (Cdk2(H71C) (C177A)) | Rate enhancement, Cdk2 N272 (Cdk2(N272C) (C177A)) | Rate constant with Cdk2 N272C (Cdk2(N272C) (C177A)) | Rate constant with glutathione (k(GSH)) [2] | Rate constant with Glutathione [2] | other results
1 | C=CC(=O)NC1CCN(Cc2ccccc2)CC1 [BN-78] | 0.00196 | 0.1622 | 0.00118 | 0.2437 | 0.001773 | 0.09002 | 0.0006548 | 0.00116 | 0.1591 | 0.001157 | 0.5905 | 0.2873 | 0.1316 | 0.0009576 | 0.2392 | 0 | 0.5049 | 0.003673 | 0.00403 | 0.007274 | Rate constant with Cdk2 R122C (Cdk2(R122C) (C177A)): 0.00174
2 | C=CC(=O)N1CC2CCCCCCC21 (stereo not shown) [CA-098] | 0.00546 | 3.196 | 0.08188 | 0.5929 | 0.01519 | 0.8872 | 0.02273 | 0.01499 | 0.9446 | 0.0242 | 2.745 | 0.9287 | 4.766 | 0.1221 | 0.3481 | 0.8002 | 6.698 | 0.1716 | 0.01614 | 0.02562 | Rate constant with Cdk2 R122C (Cdk2(R122C) (C177A)): 0.008918; Rate constant with Cdk2 H71C (Cdk2(H71C) (C177A)): 0.0205
3 | C=CC(=O)N(C(=O)C=C)c1c2ccccc2n2c(C)nc3ccccc3c12 [CA-152] | 3.059 | 0 | – | 0.1587 | 1.27 | 0.9118 | 7.297 | 0.8358 | 0.4371 | 3.498 | 0.2732 | 3.342 | 0 | – | 0 | 0 | 0 | – | 0.2501 | 8.003 | –
4 | C=CC(=O)N(CCCN1CCOCC1)Cc1ccncc1 [CA-192] | 0.00447 | 0.08092 | 0.001086 | 0.1157 | 0.001553 | 0.1475 | 0.00198 | 0.00341 | 0.4352 | 0.00584 | 0.7625 | 0.5048 | 0.4571 | 0.006134 | 0.136 | 0.218 | 0.3716 | 0.004987 | 0.00676 | 0.01342 | Rate constant with Cdk2 R122C (Cdk2(R122C) (C177A)): 0.001825; Rate constant with Cdk2 H71C (Cdk2(H71C) (C177A)): 0.002926

Now from value to molecule, other results behind:

Row | Rate constant with Cdk2[C177A, F80C, K278C] (k(Cdk2_mut)) (Cdk2[C177A, F80C, K278C]) | Rate enhancement, Cdk2 S276C (Cdk2(S276C) (C177A)) | Rate constant with Cdk2 S276C (Cdk2(S276C) (C177A)) | Rate enhancement, Cdk2 F80C (Cdk2(C177A, F80C)) | Rate constant with Cdk2 F80C (Cdk2(C177A, F80C)) | Rate enhancement, Cdk2 S181C (Cdk2(S181C) (C177A)) | Rate constant with Cdk2 S181C (Cdk2(S181C) (C177A)) | Rate constant with Cdk2 (k(Cdk2)) [1] | Rate enhancement, Cdk2 WT [1] | Rate constant with Cdk2 WT [1] | k(Cdk2)/k(Cdk2_mut) rate enhancement [1] | k(Cdk2)/k(GSH) rate enhancement [1] | Rate enhancement, Cdk2 T182C (Cdk2(T182C) (C177A)) | Rate constant with Cdk2 T182C (Cdk2(T182C) (C177A)) | Rate enhancement, Cdk2 R122C (Cdk2(R122C) (C177A)) | Rate enhancement, Cdk2 H71C (Cdk2(H71C) (C177A)) | Rate enhancement, Cdk2 N272 (Cdk2(N272C) (C177A)) | Rate constant with Cdk2 N272C (Cdk2(N272C) (C177A)) | Structure (SMILES) | Rate constant with glutathione (k(GSH)) [2] | Rate constant with Glutathione [2] | other results
5 | 0.00461 | 0.5613 | 0.001905 | 2.756 | 0.009353 | 1.561 | 0.005297 | 0.00274 | 0.8082 | 0.002743 | 0.5955 | 0.7775 | 9.081 | 0.03082 | 0.7319 | 1.092 | 1.172 | 0.003977 | C=CC(=O)N1CCCCCC1c1cccs1 (stereo not shown) [EL-1063] | 0.00353 | 0.003394 | Rate constant with Cdk2 R122C (Cdk2(R122C) (C177A)): 0.002484; Rate constant with Cdk2 H71C (Cdk2(H71C) (C177A)): 0.003705
6 | 0.00073 | 2.9904E−12 | 2.302E−14 | 0.2794 | 0.002151 | 0.9819 | 0.007559 | 0.00239 | 0.4757 | 0.003662 | 3.262 | 0.4934 | 0.1829 | 0.001408 | 0 | 0 | 0.09396 | 0.0007233 | C=CC(=O)NC(Cc1ccccc1)C(O)CF (stereo not shown) [EL-1164] | 0.00485 | 0.007698 | –
